# Assay results as given in patent US20260174875A1 (Novo Nordisk A/S, priority 2023, published 2026).
# Read-outs that look alike come from different tables or passages of the source. Marks after values point to notes of the source that are not given here. Numbered stars: 1 amine (or outer) side, 2 acyl side, 3 side chain; on linkers, the order of the positions; unused ones are H or OH. Square brackets hold non-standard residues; d marks the D form. Side chains are listed from the residue outwards. * marks the point of attachment. C20 diacid = O=C(O)CCCCCCCCCCCCCCCCCCC(=O)*; C18 diacid = O=C(O)CCCCCCCCCCCCCCCCC(=O)*; C16 diacid = O=C(O)CCCCCCCCCCCCCCC(=O)*; γGlu = O=C(O)[C@H](CCC(=O)[*:2])N[*:1]; AEEA = NCCOCCOCC(=O)O; Aib = CC(C)(N)C(=O)O
# Legend:
# [1] = target: T1, human GLP-1 receptor (hGLP-1R) (Homo sapiens, UniProt P43220); experiment: GLP-1 receptor assay, method A (CRE-luciferase reporter, BHK cells); assay type: cell-based
# T1 construct: expressed in transfected cells
# Summary of the method: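 Read-out: steadylite Plus luminescence after 30 min shaking at room temperature in the dark. hGLP-1R BHK CRE-Luc cells were stimulated for 3 h at 37° C, 5% CO2. Runs were done in the absence and presence of 1% (w/v) HSA.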
# [2] = test system: Male Sprague Dawley (SD) rats; experiment: Efficacy testing on appetite: acute food intake in ad libitum fed normal weight rats; assay type: in vivo, rat; settings: for Food intake (relative to vehicle) Day 1: day 1 [0-24 hours]; for Food intake (relative to vehicle) Day 2: day 2 [24-48 hours]; for Food intake (relative to vehicle) Day 3: day 3 [48-72 hours]
# Excerpt: Male Sprague Dawley (SD) rats from Taconic, Denmark were used for the acute food intake experiments, wherein the principles of laboratory animal care were followed.
# The rats arrived at least 10-14 days before the start of the experiment to allow acclimatization to experimental settings. During this period, the animals were handled (fixation by restrain in neck skin) at least 2 times. Immediately upon arrival, rats were changed to a reversed light cycle (dark from 11 am-11 pm) and were transferred to an automated food intake measuring system (HM2 system, MBRose; Faaborg, Denmark). […] To enable recording of individual food intake, rats were ID chipped. Three rats were housed in each cage. During the acclimatization period, in which the rats get used to the new light cycle and diet (LF 10% (D12450B), from Research Diets Inc.), the animals had free access to food and water. Since rats are normally active and consume most of their daily calories during the dark period, rats were dosed in the morning right before lights were turned off. Such a set-up results in the lowest data variation and highest test sensitivity. […] In each cage there were animals from three different treatment groups (to eliminate potential cage effects (e.g. cage malfunction) on primary readout: food intake). The rats were dosed once subcutaneously (s.c.) with the peptide of interest according to body weight (10 or 30 nmol/kg) in vehicle (0.5 ml/kg) using a NovoPen® (Novo Nordisk, Bagsvæed, Denmark).
# The compounds of the invention were formulated (20 or 60 nmol/ml) in the following vehicle: 8 mM phosphate; 250 mM glycerol; 0.007% polysorbate 20, pH 7.4.
# After dosing, the rats were returned to their home cages, where they continued to have ad libitum access to chow and water. The food consumption was recorded individually and continuously by the HM2 system from 0-72 h after test compound administration. Data obtained by the HM-2 system were stored in a HMBase SQL database (Firebird® relational database management system) and were processed by HM2Lab software (MBRose; Faaborg, Denmark) installed in an embedded computer. The feeding system is a highly sensitive system with a load resolution of 0.001 g.
# [3] = hGLP-1R Potency, 1% HSA, EC50, method A, in the presence of 1% HSA
# [4] = method A, absence of HSA, read-out: hGLP-1R Potency, no HSA, EC50
# T1 sequence (P43220 24-463): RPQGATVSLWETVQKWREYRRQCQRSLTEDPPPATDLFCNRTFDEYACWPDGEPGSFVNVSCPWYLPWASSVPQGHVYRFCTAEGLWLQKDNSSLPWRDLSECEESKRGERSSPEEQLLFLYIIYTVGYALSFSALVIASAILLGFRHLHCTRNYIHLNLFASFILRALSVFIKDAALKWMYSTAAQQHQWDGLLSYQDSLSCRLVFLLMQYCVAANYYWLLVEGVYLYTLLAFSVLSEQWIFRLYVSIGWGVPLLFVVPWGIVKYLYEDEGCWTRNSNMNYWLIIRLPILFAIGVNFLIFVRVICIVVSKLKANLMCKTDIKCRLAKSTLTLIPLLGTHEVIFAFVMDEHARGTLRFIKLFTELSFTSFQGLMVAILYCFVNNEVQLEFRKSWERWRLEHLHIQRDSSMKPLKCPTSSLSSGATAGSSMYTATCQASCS
Substance,"EC50 [1, 3]","EC50 [1, 4]","potency ratio (A/B): highest EC50 divided by lowest EC50 over hGLP-1R, hGIPR, hAMYR3 ([1]; absence of HSA, <50 = balanced tri-agonist)","EC50 ([1]; hGLP-1R Potency, no HSA, EC50, method A, absence of HSA)",Food intake (relative to vehicle) Day 1 ([2]; single dose 10 nmol/kg),Food intake (relative to vehicle) Day 2 ([2]; single dose 10 nmol/kg),Food intake (relative to vehicle) Day 3 ([2]; single dose 10 nmol/kg),Food intake (relative to vehicle) Day 1 ([2]; single dose 30 nmol/kg),Food intake (relative to vehicle) Day 2 ([2]; single dose 30 nmol/kg),Food intake (relative to vehicle) Day 3 ([2]; single dose 30 nmol/kg)
H[Aib]HGTFTSDYSILLEEQAAREFIEWLLAGGPSK([AEEA-AEEA-γGlu-C16 diacid])GEASQLSTAALGRLSAELHRLADLPRTETGSGSP-NH2 [Compound 62],0.0115 nM,,,0.00413 nM,−74%,−42%,−13%,,,
Y[Aib]EGTFTSDYSILLEEQAAREFIEWLLAGGPSSGAPPPSGGGEASHLSTAQTQRLSAK([AEEA-AEEA-γGlu-C18 diacid])LHRLATLPRTETGSGSP-NH2 [Compound 109],0.0947 nM,0.0689 nM,,,−85%,−34%,−28%,,,
Y[Aib]EGTFTSDYSILLEEQAAREFIEWLLAGGPSSGAPPPSGGGEASHLSTAQTQRLSAK([AEEA-AEEA-γGlu-C20 diacid])LHRLATLPRTETGSGSP-NH2 [Compound 110],0.169 nM,0.107 nM,,,−75%,−54%,−23%,,,
Y[Aib]EGTFTSDYSILLEEQAAREFIEWLLAGGPSSGEASHLSTAQTQRLSAELHRLK([AEEA-AEEA-γGlu-C18 diacid])TLPRTETGSGSP-NH2 [Compound 80],0.111 nM,0.0248 nM,,,−84%,−78%,−23%,,,
Y[Aib]EGTFTSDYSILLEEQAAREFIEWLLAGGPSK([AEEA-AEEA-γGlu-C18 diacid])GEASELSTAALGRLSAELHELATLPRTETGSGSP-NH2 [Compound 26],1.68 nM,0.0207 nM,,,,,,−11%,−18%,0%
H[Aib]HGTFTSDYSILLEEQAAREFIEWLLAGGPSK([AEEA-AEEA-γGlu-C18 diacid])GAPPPSGGGEASELSTAALGRLSAELHELATLPRTETGSGSP-NH2 [Compound 15],0.103 nM,0.00141 nM,,,−30%,−42%,−9%,,,
H[Aib]HGTFTSDYSILLEEQAAREFIEWLLAGGPSK([AEEA-AEEA-γGlu-C18 diacid])GEASHLSTAQTARLSAELHELATLPRTETGSGSP-NH2 [Compound 36],0.208 nM,0.00319 nM,,,−44%,−45%,−3%,,,
Y[Aib]EGTFTSDYSILLEEQAAREFIEWLLAGGPSK([AEEA-AEEA-γGlu-C16 diacid])GAPPPSGGGEASELSTAALGRLSAELHELATLPRTETGSGSP-NH2 [compound 10],0.246 nM,0.0138 nM,7,,−20* %,−4%,−4%,,,

# Continued, in another order:
"EC50 [1, 3]","EC50 [1, 4]","potency ratio (A/B): highest EC50 divided by lowest EC50 over hGLP-1R, hGIPR, hAMYR3 ([1]; absence of HSA, <50 = balanced tri-agonist)",Substance,"EC50 ([1]; hGLP-1R Potency, no HSA, EC50, method A, absence of HSA)",Food intake (relative to vehicle) Day 1 ([2]; single dose 10 nmol/kg),Food intake (relative to vehicle) Day 2 ([2]; single dose 10 nmol/kg),Food intake (relative to vehicle) Day 3 ([2]; single dose 10 nmol/kg),Food intake (relative to vehicle) Day 1 ([2]; single dose 30 nmol/kg),Food intake (relative to vehicle) Day 2 ([2]; single dose 30 nmol/kg),Food intake (relative to vehicle) Day 3 ([2]; single dose 30 nmol/kg)
0.0296 nM,0.0128 nM,,Y[Aib]EGTFTSDYSILLEEQAAREFIEWLLAGGPSSGAGQAPGQAPGASHLSTAQTQRLSAELHRLATLPK([AEEA-AEEA-γGlu-C18 diacid])TETGSGSP-NH2 [Compound 57],,−75%,−88%,−14%,,,
0.0393 nM,0.00849 nM,,H[Aib]HGTFTSDYSILLEEQAAREFIEWLLAGGPSSGEASHLSTAALGRLSAK([AEEA-AEEA-γGlu-C18 diacid])LHRLATLPRTETGSGSP-NH2 [Compound 87],,−91%,−86%,−24%,,,
0.0131 nM,0.00272 nM,,H[Aib]HGTFTSDYSILLEEQAAREFIEWLLAGGPSK([AEEA-AEEA-γGlu-C16 diacid])GEASELSTAALGRLSAELHRLATLPRTETGSGSP-NH2 [Compound 17],,−84%,−78%,−11%,,,
0.101 nM,0.00477 nM,,H[Aib]HGTFTSDYSILLEEQAAREFIEWLLAGGPSK([AEEA-AEEA-γGlu-C18 diacid])GEASQLSTAALGRLSAELHTLATLPRTETGSGSP-NH2 [Compound 63],,−79%,−80%,−17%,,,
0.0102 nM,,,H[Aib]HGTFTSDYSILLEEQAAREFIEWLLAGGPSK([AEEA-AEEA-γGlu-C16 diacid])GAPPPSGGGEASELSTAALGRLSAELHELATLPRTETGSGSP-NH2 [Compound 12],,−70%,−39%,−8%,,,
0.0792 nM,0.0233 nM,,Y[Aib]EGTFTSDYSILLEEQAAREFIEWLLAGGPSSGAGQAPGQAPGASHLSTAALGRLSAELHK([AEEA-AEEA-γGlu-C18 diacid])LATLPRTETGSGSP-NH2 [Compound 53],,−75%,−90%,−33%,,,
